According to patent US20200179510A1, “LOW DENSITY LIPOPROTEIN RECEPTOR RELATED PROTEIN 5 INHIBITION SUPPRESSES TUMOR FORMATION” (YALE UNIVERSITY, priority 2017, published 2020):

Tests used:
primary mouse NK cells = assay: IL-15-cultured primary mouse NK cells (flow cytometry, Western); assay type: cell-based; settings: for granzyme B in primary NK cells: WNT3a 2 nM, CHIR 1 μM
Experimental: Cells in single cell suspension were fixed with 2% PFA (Santa-Cruz sc-281692). After washing with a Flow Cytometry Staining Buffer (eBioscience 00-4222-26), cells were stained with antibodies for cell surface markers for 1 hour on ice in the dark. For staining of intracellular proteins, the cells were washed and resuspended in the Permeabilization Buffer (BD 554723) and stained by antibodies in the Permeabilization Buffer for 1 hour on ice in the dark. The cells were then pelleted and resuspended in the Flow Cytometry Staining Buffer for flow cytometry analysis.
Mouse primary NK and CD8+ T cells were isolated from the spleens by using the NK cell and CD8+ T cell isolation kits according to the manufacturer's instructions (Miltenyi Biotec #130-090-864 and #130-104-075), respectively. Primary NK cells were cultured in RPMI-1640 (Gibco, 11875-093) supplemented with 10% FBS, penicillin (100 U/ml), streptomycin (100 μg/ml), 2-mercaptoethanol (500 μM) and HEPES (10 mM) at 37° C. supplemented with 5% CO2 in the presence of recombinant murine IL-15 (50 ng/ml) for 24 hours before treatment with DKK2, CHIR99021, or WNT3A. CD8+ T cells were cultured in the same culture medium and condition as NK cells, but supplemented with IL-15 (200 ng/ml) and IL-15 Rα (1 μg/ml recombinant Mouse IL-15 receptor alpha Fc chimera Protein from R&D) for 96 hours before DKK2 treatment. Mouse primary intraepithelial lymphocytes (IELs) were prepared as described in (Little et al., The Journal of Immunology 175, 6713-6722 (2005) and Li et al. Infect Immun 80, 565-574 (2012)). In brief, the small intestine was everted, divided into four pieces, and washed twice in phosphate-buffered saline (PBS) containing 100 U/ml penicillin/streptomycin The specimens were then incubated with stirring at 37° C. in prewarmed Ca2+ and Mg2+-free Hanks' solution containing 100 U/ml penicillin-streptomycin, 5% fetal calf serum (FCS), 2 mM dithiothreitol (DTT), and 5 mM EDTA for 30 min, followed by vigorous shaking for 30 s. The supernatants were passed over two nylon wool columns to remove undigested tissue debris. The lymphocytes obtained were pooled and enriched on a discontinuous (40% and 70%) Percoll density gradient. Cells at the interface between the 40% and […], fractions (IELs) were collected for treatment with IL-15 (200 ng/ml) and DKK2 (200 ng/ml), followed by flow analysis.

[1] = system: Wnt reporter gene TOPFlash; assay: Wnt reporter gene (TOPFlash) assay in HEK293 cells; assay type: cell-based; settings: for Wnt reporter gene activity: DKK2 5 nM, Wnt3a 2 nM, CHIR 1 μM, 6 hrs (FIG. 10D)
Experimental: The Stat5 reporter assays were done in HEK293T cells for activated JAK1-induced activity or in those stably expressing JAK3, IL2/15Rβ and the common receptor γ subunit for IL15 induced activity. Cells were seeded at 8×10^4 cells per well in 48 well plate. The next day, cells were transfected by Lipofectamine 2000 (Invitrogen) with the pGL4.52-STAT5-Luciferase (Promega) and tagRFP (internal control) plasmids together with other plasmids expressing genes of interest. The total amount of plasmid was kept at 125 ng per well. The cells were added 24 hours after transfection with IL15/IL15Rα-Fc complex or mock. Six hours later, the cells were lysed and subjected to RFP fluorescence and luciferase luminescence measurement using an Envision Multilabel plate reader. The reporter gene activity is shown after being normalized against RFP readings. The LEF reporter assay was carried out in HEK293 cells that were transfected with the TOPFlash and GFP plasmids. The rest is the same as above. The reporter gene activity is shown after being normalized against GFP readings.
A functional mouse monoclonal anti-DKK2 antibody (5F8) was developed to specifically target and neutralize DKK2, but to not cross react with DKK-1. […] It has been shown that DKK2 as well as other DKK family proteins, inhibit canonical Wnt signaling by binding to Wnt co-receptor LRP 5/6 with high affinity and competing with Wnt molecules for receptor binding (MacDonald, B., et al., Dev Cell, 2009. 17(1): p. 9-26; Bao, J., et al., Sci Signal, 2012. 5(224): pe22). To determine if 5F8 diminished DKK2 inhibition of Wnt signaling, a Wnt reporter gene assay was used to measure Wnt activity. HEK293 cells were transfected with Wnt reporter gene TOPFlash and Wnt reporter activity was examined.

## WNT3A
Primary mouse NK cells; LRP5-deficiency
  β-catenin accumulation in LRP5-deficient NK cells: did not affect β-catenin accumulation
Primary mouse NK cells; LRP6-deficient
  β-catenin accumulation in LRP6-deficient NK cells: did not induce β-catenin accumulation
Primary mouse NK cells; WNT3A 5 nM, 24 hours, Western
  β-catenin accumulation in primary NK cells: induced β-catenin accumulation
Primary mouse NK cells; 24 hours
  granzyme B in primary NK cells: no significant effect on granzyme B expression
[1]
  Wnt reporter gene activity: a strong increase in the reporter gene activity
[1]; HEK293, TOPFlash, conditioned medium (FIG. 1E)
  Wnt reporter activity: increased Wnt reporter activity

## Cc1c[nH]c(-c2cnc(NCCNc3ccc(C#N)cn3)nc2-c2ccc(Cl)cc2Cl)n1 [CHIR99021, reference compound]
Primary mouse NK cells; 24 hours
  granzyme B in primary NK cells: no significant effect on granzyme B
[1]
  Wnt reporter gene activity: strong effect on Wnt reporter gene activity
